# Laboratory results as given in ChEMBL document CHEMBL3769391, “Identification of a new cyathane diterpene that induces mitochondrial and autophagy-dependent apoptosis and shows a potent in vivo anti-colorectal cancer activity” (Eur J Med Chem, 2016).
# Calls of active or inactive are those of the source. The rule behind the calls is not given here.
# What was measured:
# [1] = tested on: HCT-116; experiment: Induction of apoptosis in human HCT116 cells assessed as ATG5 cleavage by Western blot analysis in presence of Z-VAD-FMK; assay type: functional, cell-based
# [2] = tested on: HCT-116; experiment: Induction of apoptosis in Bax deficient human HCT116 cells assessed as late apoptotic cells at 15 uM after 24 hrs by Annexin V-FITC/propidium iodide staining based flow cytometry in presence of DTT (reference value: 1.56%); assay type: functional
# [3] = tested on: HCT-116; experiment: Induction of apoptosis in human HCT116 cells assessed as late apoptotic cells at 5 uM after 24 hrs by Annexin V-FITC/propidium iodide staining based flow cytometry in presence of NAC (reference value: 3.73%); assay type: functional
# [4] = tested on: Mus musculus; experiment: Hepatotoxicity in immune deficient nude BALB/c mouse xenografted with human HCT116 cells assessed as changes in total protein level in serum at 5 and 10 mg/kg, ip administered every other day for 2 weeks measured during compound dosing; assay type: toxicity, organism-based, HCT-116; conditions: in vivo, 336 h
# [5] = tested on: HCT-116; experiment: Induction of apoptosis in human HCT116 cells assessed as PARP cleavage at 5 uM after 6 to 24 hrs by Western blot analysis; assay type: functional, cell-based
# [6] = Cytotoxicity against Bax deficient human HCT116 cells assessed as reduction in cell viability after 24 hrs by MTT assay; assay type: functional, cell-based; conditions: HCT-116, 24 h
# [7] = tested on: HCT-116; experiment: Induction of apoptosis in human HCT116 cells assessed as caspase activation at 5 uM after 36 hrs by CaspACEFITC-VAD-FMK staining based flow cytometry (reference value: 7.72%); assay type: functional
# [8] = tested on: Mus musculus; experiment: Hepatotoxicity in immune deficient nude BALB/c mouse xenografted with Bax deficient human HCT116 cells assessed as changes in total protein level at 5 and 10 mg/kg, ip administered every other day for 2 weeks measured during compound dosing; assay type: toxicity, organism-based, HCT-116; conditions: in vivo, 336 h
# [9] = tested on: Mus musculus; experiment: Hepatotoxicity in immune deficient nude BALB/c mouse xenografted with human HCT116 cells assessed as changes in albumin level in serum at 5 and 10 mg/kg, ip administered every other day for 2 weeks measured during compound dosing; assay type: toxicity, organism-based, HCT-116; conditions: in vivo, 336 h
# [10] = tested on: HCT-116; experiment: Induction of apoptosis in human HCT116 cells assessed as cytochrome C release from mitochondria to cytoplasm at 5 uM after 12 hrs by immunofluorescence assay; assay type: functional
# [11] = tested on: HCT-116; experiment: Induction of apoptosis in human HCT116 cells assessed as late apoptotic cells at 7.5 uM after 24 hrs by Annexin V-FITC/propidium iodide staining based flow cytometry (reference value: 4.54%); assay type: functional
# [12] = tested on: HCT-116; experiment: Induction of apoptosis in human HCT116 cells assessed as increase in ATG5 expression at 5 uM after 4 to 12 hrs by Western blot analysis; assay type: functional, cell-based
# [13] = tested on: HCT-116; experiment: Induction of apoptosis in ATG5 knockdown human HCT116 cells assessed as late apoptotic cells at 5 uM after 24 hrs by Annexin V-FITC/propidium iodide staining based flow cytometry (reference value: 2.01%); assay type: functional
# [14] = tested on: HCT-116; experiment: Induction of apoptosis in Bax deficient human HCT116 cells assessed as late apoptotic cells at 10 uM after 24 hrs by Annexin V-FITC/propidium iodide staining based flow cytometry (reference value: 1.5%); assay type: functional
# [15] = tested on: HCT-116; experiment: Induction of apoptosis in human HCT116 cells assessed as viable cells at 5 uM after 24 hrs by Annexin V-FITC/propidium iodide staining based flow cytometry (reference value: 93.64%); assay type: functional; conditions: HCT-116, 24 h, read-out: Activity
# [16] = tested on: HCT-116; experiment: Induction of apoptosis in Bax deficient human HCT116 cells assessed as early apoptotic cells at 5 uM after 24 hrs by Annexin V-FITC/propidium iodide staining based flow cytometry (reference value: 1.13%); assay type: functional
# [17] = tested on: HCT-116; experiment: Induction of apoptosis in human HCT116 cells assessed as caspase activation at 5 uM after 12 hrs by CaspACEFITC-VAD-FMK staining based flow cytometry (reference value: 7.72%); assay type: functional
# [18] = tested on: HCT-116; experiment: Induction of apoptosis in human HCT116 cells assessed as late apoptotic cells at 5 uM after 24 hrs by Annexin V-FITC/propidium iodide staining based flow cytometry (reference value: 3.73 to 4.54%); assay type: functional
# [19] = tested on: HCT-116; experiment: Induction of apoptosis in human HCT116 cells assessed as necrotic cells at 5 uM after 24 hrs by Annexin V-FITC/propidium iodide staining based flow cytometry in presence of NAC (reference value: 0.44%); assay type: functional
# [20] = tested on: HCT-116; experiment: Induction of apoptosis in Bax deficient human HCT116 cells after 24 hrs by Annexin V-FITC/propidium iodide staining based flow cytometry; assay type: functional, cell-based
# [21] = tested on: HCT-116; experiment: Induction of apoptosis in human HCT116 cells assessed as caspase activation at 5 uM by CaspACEFITC-VAD-FMK staining based flow cytometry; assay type: functional, cell-based; conditions: TDE = time-dependent effect
# [22] = tested on: HCT-116; experiment: Induction of apoptosis in human HCT116 cells assessed as increase in BimEL expression at 5 uM after 6 to 24 hrs by Western blot analysis; assay type: functional, cell-based
# [23] = tested on: HCT-116; experiment: Induction of autophagy in human HCT116 cells assessed as increase in LC3-2 level at 5 uM by Western blot analysis; assay type: functional, cell-based
# [24] = tested on: HCT-116; experiment: Induction of apoptosis in human HCT116 cells assessed as changes in Bcl-X(L) expression at 5 uM after 6 to 24 hrs by Western blot analysis; assay type: functional, cell-based
# [25] = tested on: HCT-116; experiment: Induction of apoptosis in Bax deficient human HCT116 cells assessed as late apoptotic cells at 15 uM after 24 hrs by Annexin V-FITC/propidium iodide staining based flow cytometry (reference value: 1.5 to 1.56%); assay type: functional
# [26] = tested on: HCT-116; experiment: Induction of apoptosis in human HCT116 cells assessed as early apoptotic cells at 10 uM after 12 hrs by Annexin V-FITC/propidium iodide staining based flow cytometry (reference value: 1.13%); assay type: functional
# [27] = Antitumor activity against Bax deficient human HCT116 cells xenografted in immune deficient nude BALB/c mouse assessed as tumor growth inhibition at 5 mg/kg, ip administered every other day for 2 weeks measured after 2 weeks post last dose relative to control; assay type: functional; conditions: HCT-116, ip, 336 h, read-out: TGI
# [28] = tested on: HCT-116; experiment: Induction of apoptosis in human HCT116 cells assessed as necrotic cells at 5 uM after 24 hrs by Annexin V-FITC/propidium iodide staining based flow cytometry in presence of DTT (reference value: 0.44%); assay type: functional
# [29] = Antitumor activity against human HCT116 cells xenografted in immune deficient nude BALB/c mouse assessed as tumor growth inhibition at 5 mg/kg, ip administered every other day for 2 weeks measured after 2 weeks post last dose relative to control; assay type: functional; conditions: HCT-116, ip, 336 h, read-out: TGI
# [30] = tested on: HCT-116; experiment: Induction of apoptosis in human HCT116 cells assessed as decrease in Bcl-2 expression at 5 uM after 6 to 24 hrs by Western blot analysis; assay type: functional, cell-based
# [31] = tested on: HCT-116; experiment: Induction of apoptosis in human HCT116 cells assessed as increase in total cellular ROS level after 6 hrs by H2DCFDA staining based flow cytometry; assay type: functional, cell-based
# [32] = tested on: HCT-116; experiment: Induction of apoptosis in Bax deficient human HCT116 cells assessed as late apoptotic cells at 15 uM after 24 hrs by Annexin V-FITC/propidium iodide staining based flow cytometry in presence of NAC (reference value: 1.56%); assay type: functional
# [33] = tested on: HCT-116; experiment: Induction of apoptosis in human HCT116 cells assessed as viable cells at 5 uM after 24 hrs by Annexin V-FITC/propidium iodide staining based flow cytometry in presence of NAC (reference value: 93.64%); assay type: functional; conditions: HCT-116, 24 h, read-out: Activity
structure (smiles),measurement,setting,value
CO[C@@H]1C(C=O)=CC[C@@H]2C3=C(C(C)C)CC[C@]3(C)CC[C@@]2(C)[C@H]1O,Activity,[1],inactive
same,Activity,[2],3.36%
same,Activity,[3],6.46%
same,Activity,[4],Non-toxic
same,Activity,[5],Active
same,IC50,[6],24.2 µM
same,Activity,[7],93.96%
same,Activity,[8],Non-toxic
same,Activity,[9],Non-toxic
same,Activity,[10],Active
same,Activity,[11],20.8%
same,Activity,[12],Active
same,Activity,[13],1.85%
same,Activity,[14],17.64%
same,viability at 5 µM,[15],56.3%
same,Activity,[16],6.35%
same,Activity,[17],66.85%
same,Activity,[18],13.06%
same,Activity,[19],0.81%
same,Activity,[20],Dose-dependent effect
same,Activity,[21],tde
same,Activity,[22],Active
same,Activity,[23],Active
same,Activity,[24],inactive
same,Activity,[25],29.02%
same,Activity,[26],30.19%
same,inhibition in vivo at 5 mg/kg,[27],25.8%
same,Activity,[28],0.33%
same,inhibition in vivo at 5 mg/kg,[29],26%
same,Activity,[30],Active
same,Activity,[31],Dose-dependent effect
same,Activity,[32],2.07%
same,viability at 5 µM,[33],91.4%
